From patent publication US10858626B2, “Adoptive immunotherapy for treating cancer” (UNIVERSITÉ DE LAUSANNE, priority 2014, dated 2020)

Columns and labels:
breast tumor fragments = assay: Expansion of T cells in vitro from breast tumor fragments treated with kinase inhibitors (Example 2); assay type: cell-based, human; details: first 20 days of culture, high doses IL-2, 12 h inhibitor treatment
Description: The fragments were washed, placed in culture as previously described and 20 days later the number of T cells obtained were counted. Antibodies and multimers of MHC class I: antibodies specific for CD4, CD8, CD3 and CD28 were from Beckton Dikinson. Antibodies specific for PD-1 were from Affimetrix eBioscience (clone J105, PD-1 PerCP-eF710), anti-LAG-3 antibodies were from Enzo Life Science (clone 17B4, LAG-3-FITC), anti-CD137 antibodies were from Biolegend (clone 4B4-1, CD137-BV605). Fluorescently labelled Her2/neu MHC-classI multimers were from TCMetrix (Epalinges, Swizerland).

kinases = details: other kinases inhibited; cited from earlier work
VEGFR-1 = VEGFR-1 (Homo sapiens, UniProt P17948); details: cited from earlier work
Chain of VEGFR-1 (P17948 27-1338, species assumed): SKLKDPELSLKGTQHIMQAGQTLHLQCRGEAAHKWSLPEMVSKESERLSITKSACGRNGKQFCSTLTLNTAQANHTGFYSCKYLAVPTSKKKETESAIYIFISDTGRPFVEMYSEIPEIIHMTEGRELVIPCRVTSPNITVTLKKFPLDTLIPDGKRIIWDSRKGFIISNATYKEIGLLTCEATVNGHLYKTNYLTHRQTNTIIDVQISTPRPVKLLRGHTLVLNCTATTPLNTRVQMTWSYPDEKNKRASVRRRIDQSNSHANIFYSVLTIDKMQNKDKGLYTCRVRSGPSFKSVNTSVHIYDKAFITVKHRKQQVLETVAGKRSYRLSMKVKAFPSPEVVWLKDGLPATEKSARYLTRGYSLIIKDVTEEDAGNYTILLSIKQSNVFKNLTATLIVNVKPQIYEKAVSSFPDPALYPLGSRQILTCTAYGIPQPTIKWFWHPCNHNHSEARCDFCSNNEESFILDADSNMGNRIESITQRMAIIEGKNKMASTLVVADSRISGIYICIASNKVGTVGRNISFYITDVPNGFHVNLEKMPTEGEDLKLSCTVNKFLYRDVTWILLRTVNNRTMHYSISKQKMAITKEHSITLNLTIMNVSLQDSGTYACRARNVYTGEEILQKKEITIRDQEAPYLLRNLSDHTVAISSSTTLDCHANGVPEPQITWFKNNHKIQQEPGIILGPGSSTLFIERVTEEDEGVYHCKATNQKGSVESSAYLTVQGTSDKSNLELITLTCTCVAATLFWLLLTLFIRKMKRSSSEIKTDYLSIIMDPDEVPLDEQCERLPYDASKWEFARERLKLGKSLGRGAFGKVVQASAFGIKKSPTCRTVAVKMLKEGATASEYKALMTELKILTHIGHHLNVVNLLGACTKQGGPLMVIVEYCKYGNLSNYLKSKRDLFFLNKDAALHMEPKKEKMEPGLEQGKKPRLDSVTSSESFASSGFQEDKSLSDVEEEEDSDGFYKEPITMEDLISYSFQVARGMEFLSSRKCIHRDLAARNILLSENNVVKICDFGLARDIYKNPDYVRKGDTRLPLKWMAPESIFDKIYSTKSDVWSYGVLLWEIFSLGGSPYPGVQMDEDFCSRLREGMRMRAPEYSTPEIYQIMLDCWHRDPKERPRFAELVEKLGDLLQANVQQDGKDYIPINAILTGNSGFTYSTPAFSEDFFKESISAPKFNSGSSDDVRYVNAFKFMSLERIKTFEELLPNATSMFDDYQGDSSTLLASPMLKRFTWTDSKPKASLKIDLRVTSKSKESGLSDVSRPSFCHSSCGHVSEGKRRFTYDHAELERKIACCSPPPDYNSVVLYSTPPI

TIE-2 = TIE-2 (Homo sapiens, UniProt Q02763); details: read-out: IC 50 TIE-2; cited from earlier work
Chain of TIE-2 (Q02763 23-1124, species assumed): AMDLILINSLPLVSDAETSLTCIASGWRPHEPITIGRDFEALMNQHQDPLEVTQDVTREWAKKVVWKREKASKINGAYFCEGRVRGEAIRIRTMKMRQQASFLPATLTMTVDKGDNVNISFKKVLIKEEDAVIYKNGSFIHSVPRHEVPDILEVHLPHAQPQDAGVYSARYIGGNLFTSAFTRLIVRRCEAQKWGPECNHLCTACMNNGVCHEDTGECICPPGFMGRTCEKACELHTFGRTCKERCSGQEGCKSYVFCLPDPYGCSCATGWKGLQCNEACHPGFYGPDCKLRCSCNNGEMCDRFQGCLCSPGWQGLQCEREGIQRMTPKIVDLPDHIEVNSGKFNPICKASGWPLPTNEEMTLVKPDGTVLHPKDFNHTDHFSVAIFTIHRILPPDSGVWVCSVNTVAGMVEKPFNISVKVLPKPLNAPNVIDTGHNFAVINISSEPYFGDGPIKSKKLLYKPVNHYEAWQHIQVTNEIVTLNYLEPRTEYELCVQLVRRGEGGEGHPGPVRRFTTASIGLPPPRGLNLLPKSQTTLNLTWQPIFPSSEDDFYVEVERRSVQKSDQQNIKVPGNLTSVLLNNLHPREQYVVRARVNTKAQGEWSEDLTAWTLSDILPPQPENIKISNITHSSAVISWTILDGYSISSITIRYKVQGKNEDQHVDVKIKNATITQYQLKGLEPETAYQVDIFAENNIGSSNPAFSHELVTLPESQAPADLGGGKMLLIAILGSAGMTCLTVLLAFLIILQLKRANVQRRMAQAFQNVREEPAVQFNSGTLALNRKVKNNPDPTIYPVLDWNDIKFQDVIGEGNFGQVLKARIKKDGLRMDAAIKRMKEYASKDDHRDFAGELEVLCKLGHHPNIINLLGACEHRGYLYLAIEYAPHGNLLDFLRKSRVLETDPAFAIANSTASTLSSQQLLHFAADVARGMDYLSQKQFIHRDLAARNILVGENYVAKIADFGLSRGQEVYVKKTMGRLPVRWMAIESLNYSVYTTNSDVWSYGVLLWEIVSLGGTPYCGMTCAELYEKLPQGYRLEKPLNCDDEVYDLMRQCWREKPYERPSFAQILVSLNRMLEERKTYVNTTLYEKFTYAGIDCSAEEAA

| Structure (SMILES) | Additional inhibition reported (kinases) | IC50 (TIE-2) [nM] | further results |
| --- | --- | --- | --- |
| COc1ccc2cc(-c3[nH]c(-c4ccc([S+](C)[O-])cc4)nc3-c3ccncc3)ccc2c1 (centres unmarked) [SB633825, 4-(5-(6-methoxynaphthalen-2-yl)-2-(4-(methylsulfinyl)phenyl)-1H-imidazol-4-yl)pyridine] | p38, PDGFR1 | – | Number of T cells expanded per 1 mm3 of breast tumor tissue (breast tumor fragments): more than one million |
| Clc1ccc(Nc2nnc(Cc3ccncc3)c3ccccc23)cc1 [PTK787, Vatalanib] | c-Kit, PDGFR | – | – |
| COc1cc2nccc(Oc3ccc(NC(=O)Nc4cc(C)on4)c(Cl)c3)c2cc1OC [Tivozanib] | PDGFR, c-Kit | – | – |
| CNC(=O)c1cc(Oc2ccc(NC(=O)Nc3cc(C(C)(C)C)nn3-c3ccc4ncccc4c3)c(F)c2)ccn1 [Rebastinib (DCC-2036), Rebastinib] | – | – | IC50 (VEGFR-1): 12 nM |
| O=C(Nc1cc(Oc2cc(F)c(NC(=O)C3(C(=O)Nc4ccc(F)cc4)CC3)cc2F)ccn1)C1CC1 [Altiratinib (DCC-2701), Altiratinib] | Met | 2 | – |
| Cc1ccc(OC(=O)N(CC(=O)N[C@@H](C)C2CCCCC2)Cc2ccc(-c3cncc(C(=O)O)c3)cc2)cc1 [Compound 7, 5-[4-[[[2-[[(1S)-1-Cyclohexylethyl]amino]-2-oxoethyl][(4methylphenoxy)carbonyl]amino]methyl]phenyl]-3-pyridinecarboxylic acid] | – | 300 | – |
